Patent US9200046B2, “Reporter system for high throughput screening of compounds and uses thereof” (priority 2011, dated 2015)
Several values for one entry are separate records, joined by “and”; a condition that tells them apart may be missing. Identical values can stand only once. Counter-ions that a name gives are not always drawn. Like-named read-outs stand apart in the source and are kept apart here.

Target: Nrf2-Keap1 complex (Homo sapiens, UniProt Q14145)
Test: cell-based
Type: cell-based
Conditions: for activation at 16 µM / activation at 32 µM: 3 h; for activation at 16 µM: read-out: Activation 100 nL; for activation at 32 µM: read-out: Activation 200 nL
[1] = Table 2, 100 nL compound, screen run at 16 and 32 μM, 3 hr
[2] = Table 2, 200 nL compound, screen run at 16 and 32 μM, 3 hr
[3] = Table 1A, 100 nL compound, screen run at 16 and 32 μM, 3 hr
[4] = Table 1A, 200 nL compound, screen run at 16 and 32 μM, 3 hr

Sequence of Nrf2-Keap1 complex (Q14145 whole entry, one chain of several): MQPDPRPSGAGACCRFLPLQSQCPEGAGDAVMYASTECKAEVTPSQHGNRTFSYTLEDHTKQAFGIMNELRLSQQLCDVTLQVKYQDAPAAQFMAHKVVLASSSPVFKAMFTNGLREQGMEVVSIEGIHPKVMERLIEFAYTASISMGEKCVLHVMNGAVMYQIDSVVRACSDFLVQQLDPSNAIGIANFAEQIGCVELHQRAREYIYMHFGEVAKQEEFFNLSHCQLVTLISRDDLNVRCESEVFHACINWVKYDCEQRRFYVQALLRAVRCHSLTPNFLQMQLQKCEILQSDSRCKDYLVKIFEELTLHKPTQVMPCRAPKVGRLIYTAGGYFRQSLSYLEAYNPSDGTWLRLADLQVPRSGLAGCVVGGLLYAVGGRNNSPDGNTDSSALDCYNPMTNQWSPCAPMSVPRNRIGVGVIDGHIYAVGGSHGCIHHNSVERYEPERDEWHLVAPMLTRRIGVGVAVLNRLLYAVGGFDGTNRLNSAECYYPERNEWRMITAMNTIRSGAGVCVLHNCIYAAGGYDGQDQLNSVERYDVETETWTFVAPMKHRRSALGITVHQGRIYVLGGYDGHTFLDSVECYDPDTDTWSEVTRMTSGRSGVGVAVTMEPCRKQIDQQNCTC

Structure (SMILES): CCCSc1ccc2nc(NC(=O)OC)[nH]c2c1 [ALBENDAZOLE, reference compound]
- 100 nL (luminescence): 4200
- 200 nL (luminescence): 5292
- activation at 16 µM: 191%
- activation at 32 µM: 272%

Structure (SMILES): CC(=O)C(=Cc1ccccc1)CC(=O)O
- Activation 100 nL: 78%
- Activation 200 nL: 43%
- 100 nL (luminescence) [1]: 1048
- 200 nL (luminescence) [2]: 1348

Structure (SMILES): C=C1C2=CC(=O)O[C@@H](c3ccoc3)[C@]2(C)CC[C@@H]1[C@@]1(C)C=CC(=O)C(C)(C)[C@@H]1CC(=O)OC [DEOXYANDIROBIN]
- activation at 16 µM: 95%
- activation at 32 µM: 106%
- 100 nL (luminescence) [1]: 1816
- 200 nL (luminescence) [2]: 1944

Structure (SMILES): CC1=CC(=O)[C@H]2C(C)(C)CCC[C@]2(C)[C@@]1(O)CCc1ccoc1 [SOLIDAGENONE]
- activation at 16 µM: 121%
- activation at 32 µM: 77%
- 100 nL (luminescence) [3]: 1976
- 200 nL (luminescence) [4]: 2220

Structure (SMILES): OC[C@H]1O[C@H]([S-])[C@H](O)[C@@H](O)[C@@H]1O.[Au+] [AUROTHIOGLUCOSE, reference compound]
- Activation 100 nL: 27%
- Activation 200 nL: 1%
- 100 nL (luminescence) [1]: 604
- 200 nL (luminescence) [2]: 360

Structure (SMILES): CC(=O)O[C@@H]1CC2C(C)(C)[C@H](O)C=C[C@]2(C)C2CC[C@]3(C)C(=CC(=O)O[C@H]3c3ccoc3)[C@@]21C (stereo partly drawn) [3-alpha-HYDROXYDEOXYGEDININ]
- Activation 100 nL: 55%
- Activation 200 nL: 94%
- 100 nL (luminescence) [1]: 1196
- 200 nL (luminescence) [2]: 1764

Structure (SMILES): O=c1cc(-c2ccc(O)c(O)c2)oc2cc(O)cc(O)c12 [Luteolin, 5,7,3′,4′-tetrahydroxyflavone]
- hit strength in the screen (words): much lesser active than fisetin and quercetin
- hit strength in the screen (words) (listed as luteolin): very poor Nrf2 activator

Structure (SMILES): COc1ccc(C(=O)c2ccccc2)c(O)c1O
- Activation 100 nL: 47%
- Activation 200 nL: 37%
- 100 nL (luminescence) [1]: 780
- 200 nL (luminescence) [2]: 1212

Structure (SMILES): C=C(C)[C@@H]1CC=C(CO)CC1 [PERILLYLALCOHOL]
- 100 nL (luminescence): 824
- 200 nL (luminescence): 736
- activation at 16 µM: 31%
- activation at 32 µM: 27%

Structure (SMILES): COC(=O)Nc1nc2cc(C(=O)c3cccs3)ccc2[nH]1 [NOCODAZOLE, reference compound]
- activation at 16 µM: 28%
- activation at 32 µM: 48%
- 100 nL (luminescence) [3]: 940
- 200 nL (luminescence) [4]: 980

Structure (SMILES): CCC(C)C(=O)OC1[C@@H]2CC3=C4CC(=O)O[C@@H](c5ccoc5)[C@]4(C)CCC3[C@@](C)(C2=O)[C@@H](CC(=O)OC)C1(C)C (stereo partly drawn) [KHAYASIN]
- activation at 16 µM: 90%
- activation at 32 µM: 105%
- 100 nL (luminescence) [1]: 1736
- 200 nL (luminescence) [2]: 1928

Structure (SMILES): CC1=C(/C=C/C(C)=C/C=C/C(C)=C\C(=O)O)C(C)(C)CCC1 [ISOTRETINON, reference compound]
- Activation 100 nL: 34%
- Activation 200 nL: 86%
- 100 nL (luminescence) [1]: 1068
- 200 nL (luminescence) [2]: 1456

Structure (SMILES): CC(=O)NC(C(=O)O)C(C)(C)SN=O (stereo not drawn) [reference compound]
- Activation 100 nL: 45%
- Activation 200 nL: 52%
- 100 nL (luminescence) [1]: 1044
- 200 nL (luminescence) [2]: 1120

Structure (SMILES): COC(=O)C(N)CS (stereo not drawn) [MECYSTEINEHYDROCHLORIDE, reference compound]
- 100 nL (luminescence): 2028
- 200 nL (luminescence): 3064
- activation at 16 µM: 82%
- activation at 32 µM: 216%

Structure (SMILES): CC1CCC(NC(=O)N(CCCl)N=O)CC1 (stereo not drawn) [SEMUSTINE, reference compound]
- 100 nL (luminescence): 1172
- 200 nL (luminescence): 3000
- activation at 16 µM: 39%
- activation at 32 µM: 144%

Structure (SMILES): COC(=O)CC[C@@H](C)[C@H]1CC[C@H]2[C@@H]3[C@H](O)C[C@@H]4C[C@H](O)CC[C@]4(C)[C@H]3C[C@H](O)[C@]12C [CHOLICACID, METHYLESTER]
- Activation 100 nL: 36%
- Activation 200 nL: 15%
- 100 nL (luminescence) [1]: 848
- 200 nL (luminescence) [2]: 804

Structure (SMILES): COc1c(C)c2c(c(O)c1C/C=C(\C)CCC(=O)O)C(=O)OC2 [MYCOPHENOLICACID, reference compound]
- activation at 16 µM: 26%
- activation at 32 µM: 84%
- 100 nL (luminescence) [1]: 904
- 200 nL (luminescence) [2]: 1428

Structure (SMILES): COc1cc(O)cc(OC)c1OC [ANTIAROL]
- activation at 16 µM: 74%
- activation at 32 µM: 81%
- 100 nL (luminescence) [1]: 1016
- 200 nL (luminescence) [2]: 2248

Structure (SMILES): COc1ccc2c(c1)OCC(Cc1ccc(O)c(OC)c1)C2=O (stereo not drawn)
- 100 nL (luminescence): 1416 and 900

Structure (SMILES): O=C(/C=C/c1ccccc1)c1ccc(O)cc1 [4′-HYDROXYCHALCONE]
- 100 nL (luminescence): 3674
- 200 nL (luminescence): 1488
- activation at 16 µM: 217%
- activation at 32 µM: 76%

Structure (SMILES): CC(=O)O[C@@H]1CC2C(C)(C)[C@H](O)CC[C@]2(C)C2CC[C@@]3(C)[C@H](c4ccoc4)OC(=O)C4OC43[C@@]21C (stereo partly drawn) [alpha-DIHYDROGEDUNOL]
- Activation 100 nL: 41%
- Activation 200 nL: 29%
- Neh2-luc reporter activation: 40%
- 100 nL (luminescence) [1]: 720
- 200 nL (luminescence) [2]: 1008

Structure (SMILES): COc1ccc(-c2oc3ccccc3c(=O)c2O)cc1OC [3-HYDROXY-3′,4′-DIMETHOXYFLAVONE]
- activation at 16 µM: 85%
- activation at 32 µM: -6%
- 100 nL (luminescence) [1]: 1504
- 200 nL (luminescence) [2]: 316
- fold less effective than quercetin and fisetin (flavone SAR): 2.5 fold

Structure (SMILES): COc1ccc2ccc(=O)oc2c1CC=C(C)C [OSTHOL]
- Activation 100 nL: 58%
- Activation 200 nL: 52%
- 100 nL (luminescence) [1]: 1136
- 200 nL (luminescence) [2]: 1634

Structure (SMILES): C=C(NC(=O)C(=C)NC(=O)c1csc(C2=N[C@@H]3c4csc(n4)[C@H]4NC(=O)c5csc(n5)[C@H]([C@](C)(O)[C@@H](C)O)NC(=O)[C@H]5CSC(=N5)/C(=C/C)NC(=O)[C@H]([C@@H](C)O)NC(=O)c5csc(n5)[C@]3(CC2)NC(=O)[C@H](C)NC(=O)C(=C)NC(=O)[C@H](C)NC(=O)[C@H]([C@@H](C)CC)N[C@@H]2C=Cc3c([C@H](C)O)cc(nc3[C@H]2O)C(=O)O[C@@H]4C)n1)C(N)=O [THIOSTREPTON, reference compound]
- activation at 16 µM: 58%
- activation at 32 µM: 50%
- 100 nL (luminescence) [3]: 876
- 200 nL (luminescence) [4]: 1504
